Read-outs that look alike come from different tables or passages of the source.
What was measured:
[1] = target: T1, human EHMT2 913-1193 (Homo sapiens, UniProt Q96KQ7); assay: EHMT2 enzyme assay on histone peptide substrate (EHMT2 PEP); type: biochemical
T1 construct: recombinant purified human EHMT2 913-1193, Viva; purchased Viva
T1 sequence (Q96KQ7 913-1193): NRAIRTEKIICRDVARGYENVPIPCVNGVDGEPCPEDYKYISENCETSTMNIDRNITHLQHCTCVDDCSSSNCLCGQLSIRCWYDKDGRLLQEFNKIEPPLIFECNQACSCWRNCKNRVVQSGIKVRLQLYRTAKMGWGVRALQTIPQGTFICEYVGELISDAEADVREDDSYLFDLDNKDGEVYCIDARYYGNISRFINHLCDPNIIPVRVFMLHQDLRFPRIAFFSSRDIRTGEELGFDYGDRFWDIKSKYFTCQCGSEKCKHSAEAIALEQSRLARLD
Procedure: Recombinant purified human EHMT2 913-1193 (55 μM) synthesized by Viva was used for all experiments. Biotinylated histone peptides were synthesized by Biopeptide and HPLC-purified to >95% purity. Streptavidin Flashplates and seals were purchased from PerkinElmer and 384 Well V-bottom Polypropylene Plates were from Greiner. ^3H-labeled S-adenosylmethionine (^3H-SAM) was obtained from American Radiolabeled Chemicals with a specific activity of 80 Ci/mmol. Unlabeled SAM and S-adenosylhomocysteine (SAH) were obtained from American Radiolabeled Chemicals and Sigma-Aldrich respectively. Flashplates were washed in a Biotek ELx-405 with 0.1% Tween. 384-well Flashplates and 96-well filter binding plates were read on a TopCount microplate reader (PerkinElmer). Compound serial dilutions were performed on a Freedom EVO (Tecan) and spotted into assay plates using a Thermo Scientific Matrix PlateMate (Thermo Scientific). Reagent cocktails were added by Multidrop Combi (Thermo Scientific).
General Procedure for EHMT2 Enzyme Assay on Histone Peptide Substrate.
10-point curves of test compounds were made on a Freedom EVO (Tecan) using serial 3-fold dilutions in DMSO, beginning at 2.5 mM (final top concentration of compound was 50 μM and the DMSO was 2%). A 1 μL aliquot of the inhibitor dilution series was spotted in a polypropylene 384-well V-bottom plate (Greiner) using a Thermo Scientific Matrix PlateMate (Thermo Scientific). […] Compounds were incubated for 30 minutes with 40 μL per well of 0.031 nM EHMT2 (recombinant purified human EHMT2 913-1193, Viva) in 1× assay buffer (20 mM Bicine [pH 7.5], 0.002% Tween 20, 0.005% Bovine Skin Gelatin and 1 mM TCEP). […] Reactions were incubated for 60 minutes at room temperature and quenched with 10 μL per well of 400 μM unlabeled SAM, then transferred to a 384-well streptavidin Flashplate (PerkinElmer) and washed in a Biotek ELx-405 well washer with 0.1% Tween after 60 minutes. 384-well Flashplates were read on a TopCount microplate reader (PerkinElmer).

[2] = target: T2, EHMT1 (Homo sapiens, UniProt Q9H9B1); assay: EHMT1 enzyme assay on peptide substrate (EHMT1 PEP); type: biochemical
T2 sequence (Q9H9B1 1-1298): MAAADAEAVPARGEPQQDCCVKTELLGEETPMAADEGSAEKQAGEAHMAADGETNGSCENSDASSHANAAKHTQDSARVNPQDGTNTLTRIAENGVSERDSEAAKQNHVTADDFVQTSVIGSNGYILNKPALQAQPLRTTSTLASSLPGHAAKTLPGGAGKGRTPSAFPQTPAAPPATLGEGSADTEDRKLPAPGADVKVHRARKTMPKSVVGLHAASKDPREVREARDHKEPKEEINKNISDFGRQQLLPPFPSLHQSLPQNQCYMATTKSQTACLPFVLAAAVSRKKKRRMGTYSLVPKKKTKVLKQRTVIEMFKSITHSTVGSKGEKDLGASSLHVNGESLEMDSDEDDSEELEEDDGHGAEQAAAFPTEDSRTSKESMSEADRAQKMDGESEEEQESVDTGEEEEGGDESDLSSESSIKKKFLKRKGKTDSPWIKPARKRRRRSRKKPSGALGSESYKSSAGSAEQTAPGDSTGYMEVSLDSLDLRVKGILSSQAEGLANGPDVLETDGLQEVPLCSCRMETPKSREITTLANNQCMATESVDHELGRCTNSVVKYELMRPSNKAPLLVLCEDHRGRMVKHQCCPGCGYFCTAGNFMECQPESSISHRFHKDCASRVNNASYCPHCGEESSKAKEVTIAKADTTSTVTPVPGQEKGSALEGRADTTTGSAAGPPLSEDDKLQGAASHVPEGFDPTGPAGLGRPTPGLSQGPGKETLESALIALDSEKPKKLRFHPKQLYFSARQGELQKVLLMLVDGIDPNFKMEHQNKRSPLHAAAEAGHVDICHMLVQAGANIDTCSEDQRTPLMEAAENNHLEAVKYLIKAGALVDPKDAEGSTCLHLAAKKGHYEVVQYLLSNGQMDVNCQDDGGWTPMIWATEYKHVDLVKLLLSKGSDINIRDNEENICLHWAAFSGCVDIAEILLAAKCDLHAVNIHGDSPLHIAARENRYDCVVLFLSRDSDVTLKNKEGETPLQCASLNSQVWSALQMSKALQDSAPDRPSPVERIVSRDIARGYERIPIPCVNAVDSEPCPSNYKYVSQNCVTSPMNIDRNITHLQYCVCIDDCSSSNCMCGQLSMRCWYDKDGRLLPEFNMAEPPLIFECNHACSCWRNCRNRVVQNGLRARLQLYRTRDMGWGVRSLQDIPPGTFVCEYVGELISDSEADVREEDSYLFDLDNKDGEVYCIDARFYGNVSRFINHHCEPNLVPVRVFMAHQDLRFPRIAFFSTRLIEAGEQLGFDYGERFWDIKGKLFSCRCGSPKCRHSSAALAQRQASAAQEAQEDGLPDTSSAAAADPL

[3] = Table II, read-out: EHMT2 PEP (IC50 μM)
[4] = Table II, read-out: EHMT1 PEP (IC50 μM)
[5] = Table VII, read-out: EHMT2 PEP IC50
[6] = Table VII, read-out: EHMT1 PEP IC50

Structure (SMILES)	IC50 [1, 3] [µM]	IC50 [2, 4] [µM]	also measured
CCCCNc1nccc(NCCCN2CCCC2)n1 [Compound 74]	> 10	> 10	–
CCCCNc1nc(NCC2CCNCC2)ncc1C#N [Compound 84]	> 10	> 10	–
CC(=O)N1CCC(CNc2ccnc(Nc3cccc(NC(=O)c4ccc5c(c4)CC(=O)N5)c3)n2)CC1 [Compound 115]	> 10	> 10	–
COc1ccc(Nc2nccc(NCC3CCNCC3)n2)cc1OCCCN1CCCC1Cc1ccccc1 (centres unmarked) [Compound 116]	1 to 10	1 to 10	–
COc1ccc(Nc2nccc(N3CCCC3)n2)cc1OCCCN1CCCC1 [Compound 124]	1 to 10	1 to 10	–
CCCCNc1ncc(C)c(NCC2CCNCC2)n1 [Compound 91]	> 10	1 to 10	–
CCCCNc1ncc(C#N)c(NCC2CCNCC2)n1 [Compound 83]	> 10	> 10	–
Cc1ccc(NC(=O)Nc2ccc(Nc3nc(C)cc(N4CCCC4)n3)cc2)cc1 [Compound 1119]	–	–	IC50 [1, 5]: 1 to 10 µM; IC50 [2, 6]: 1 to 10 µM
COc1ccc(Nc2nccc(NCC3CCN(C(C)=O)CC3)n2)cc1OCCCN1CC[C@H](F)C1 [Compound 117]	1 to 10	1 to 10	–
COc1ccc(Nc2nccc(CNC3CCN(C(C)=O)CC3)n2)cc1OCCCN1CCCC1 [Compound 106]	1 to 10	0.1 to 1	–
CCCCNc1nccc(NCCCN)n1 [Compound 79]	> 10	1 to 10	–
COc1ccc(Nc2ccc3ncn(C)c3c2)cc1OCCCN1CCCC1 [Compound 200]	> 10	> 10	–
COCCNc1nccc(N)n1 [Compound 75]	> 10	> 10	–
COc1ccc(Nc2nccc(NCC3CCN(C(C)=O)CC3)n2)cc1OCCCN1CCCC1=O [Compound 119]	> 10	> 10	–
COc1ccc(Nc2ccnc(NCC3CCNCC3)c2)cc1OCCCN1CCCC1 [Compound 11, N^4-(4-methoxy-3-(3-(pyrrolidin-1-yl)propoxy)phenyl)-N^2-(piperidin-4-ylmethyl)pyridine-2,4-diamine]	< 0.1	< 0.1	–
CCCCNc1nccc(C(=O)NC2CCOCC2)n1 [Compound 81]	> 10	> 10	–
COc1ccc(Nc2nccc(N3CCOCC3)n2)cc1OCCCN1CCCC1 [Compound 102]	> 10	> 10	–
COc1ccc(Nc2nccc(N3CCCCC3)n2)cc1OCCCN1CCCC1 [Compound 125]	1 to 10	1 to 10	–
CCCCNc1ncc(C(N)=O)c(NCC2CCNCC2)n1 [Compound 89]	> 10	> 10	–

Structure (SMILES)	IC50 [1, 3] [µM]	IC50 [2, 4] [µM]	also measured
CCCCNc1ncc(-c2ccccc2)c(N)n1 [Compound 82]	> 10	> 10	–
COc1ccc(Nc2nccc(NCC3CCN(C(C)=O)CC3)n2)cc1NC(=O)CCN1CCCC1 [Compound 121]	1 to 10	1 to 10	–
O=C(NCCNc1ccnc(NCC2CCNCC2)n1)c1cccc(N2CCCC2)c1 [Compound 100]	> 10	> 10	–
COc1ccc(Nc2nccc(NCC3COC3)n2)cc1OCCCN1CCCC1 [Compound 256, N^2-(4-methoxy-3-(3-(pyrrolidin-1-yl)propoxy)phenyl)-N^4-(oxetan-3-ylmethyl)pyrimidine-2,4-diamine]	–	–	IC50 ([1]; Table III, read-out: EHMT2 PEP (IC50 μM)): > 10 µM; IC50 ([2]; Table III, read-out: EHMT1 PEP (IC50 μM)): > 10 µM
CCCCNc1nccc(C(N)=O)n1 [Compound 80]	> 10	> 10	–
COc1ccc(Nc2cccc(NCC3CCNCC3)n2)cc1OCCCN1CCCC1 [Compound 113]	1 to 10	1 to 10	–
CCc1ccccc1NC(=O)Nc1ccc(Nc2nc(C)cc(N3CCCC3)n2)cc1 [Compound 1115]	–	–	IC50 [1, 5]: 1 to 10 µM; IC50 [2, 6]: 1 to 10 µM
CC(=O)N1CCC(CNc2ccnc(Nc3cccc(NC(=O)c4cn(C5CC5)nn4)c3)n2)CC1 [Compound 123]	> 10	> 10	–
CCNc1nc(C)cc(Nc2ccc(NC(=O)Nc3ccc(F)cc3)cc2)n1 [Compound 1116]	–	–	IC50 [1, 5]: 1 to 10 µM; IC50 [2, 6]: > 10 µM
CCCCNc1nccc(NCC2CCOCC2)n1 [Compound 59]	> 10	> 10	–
CCCCNc1nccc(NCC2CCNCC2)n1 [Compound 60]	1 to 10	1 to 10	–
COc1ccc(Nc2nccc(CCN3CCN(C(C)=O)CC3)n2)cc1OCCCN1CCCC1 [Compound 196]	> 10	> 10	–
CCCCNc1nc(NCC2CCNCC2)cc(C(N)=O)n1 [Compound 85]	> 10	> 10	–
CC(=O)N1CCC(CNc2ccnc(Nc3cccc(NC(=O)c4cc(C5CC5)on4)c3)n2)CC1 [Compound 122]	> 10	> 10	–
O=C(NCCNc1ccnc(NCC2CCNCC2)n1)c1ccc2[nH]c(=O)oc2c1 [Compound 95]	> 10	> 10	–
CCCCNc1nccc(NCC2CCN(C(C)=O)CC2)n1 [Compound 66]	> 10	> 10	–
CCCCNc1nc(C)cc(NCC2CCNCC2)n1 [Compound 86]	1 to 10	1 to 10	–
CCNc1nc(C)cc(Nc2ccc(NC(=O)Nc3ccc(C)c(C)c3)cc2)n1 [Compound 1118]	–	–	IC50 [1, 5]: 1 to 10 µM; IC50 [2, 6]: > 10 µM

From patent US20210198277A1, “AMINE-SUBSTITUTED ARYL OR HETEROARYL COMPOUNDS” (Epizyme, Inc., priority 2016, published 2021)
